Source: US12371428B2 (Exelixis, Inc., priority 2019, dated 2025)
Structures can show the parent of a compound that is named as a salt.

Experiments:
[1] = biological target: AXL (phospho-AXL, Gas6-stimulated A-172 glioblastoma cells) (Homo sapiens (Human), UniProt P30530); experiment: AXL autophosphorylation ELISA in A-172 cells (Example E); format: cell-based; conditions: cellular activity; AXL autophosphorylation ELISA in A-172 cells; read-out: Axl IC50
Method in brief: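 Phospho-AXL in lysates was quantified by ELISA, normalised to DMSO (100%) and reference inhibitor (0%) controls. IC50 by 4-parameter logistic fit.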

[2] = biological target: KDR (phospho-KDR, VEGF165-stimulated HUVEC cells) (Homo sapiens (Human), UniProt P35968); experiment: KDR autophosphorylation ELISA in HUVEC cells (Example G); format: cell-based; conditions: cellular activity; KDR autophosphorylation ELISA in HUVEC cells
Method in brief: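 Cells seeded, grown 24 h at 37 °C, starved 24 h serum-free; cpd 8-pt curve, 0.3% DMSO, 1 h; VEGF165 100 ng/mL, 5 min; cold PBS wash, lysis with orthovanadate and protease/phosphatase inhibitors; pKDR ELISA; IC50 by 4-parameter logistic regression.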

[3] = biological target: Human KDR (residues 790-1356) (Homo sapiens (Human), UniProt P35968); experiment: Human KDR kinase assay, HTRF KinEase (Example B-2); format: biochemical; conditions: protocol of Example B-2 (other compounds)
Method in brief: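 Human KDR residues 790-1356 (0.1 ng/well) in buffer with 5 mM MgCl2, 1 mM MnCl2, 1 mM DTT, biotinylated peptide substrate, ATP at Km (4.0 μM), 3% DMSO, 10 compound concentrations; 40 min, room temperature. EDTA stop, streptavidin-XL665/Eu-TK antibody HTRF read 665/620 nm; 4-parameter IC50.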

Chain of KDR (phospho-KDR, VEGF165-stimulated HUVEC cells) (P35968 20-1356): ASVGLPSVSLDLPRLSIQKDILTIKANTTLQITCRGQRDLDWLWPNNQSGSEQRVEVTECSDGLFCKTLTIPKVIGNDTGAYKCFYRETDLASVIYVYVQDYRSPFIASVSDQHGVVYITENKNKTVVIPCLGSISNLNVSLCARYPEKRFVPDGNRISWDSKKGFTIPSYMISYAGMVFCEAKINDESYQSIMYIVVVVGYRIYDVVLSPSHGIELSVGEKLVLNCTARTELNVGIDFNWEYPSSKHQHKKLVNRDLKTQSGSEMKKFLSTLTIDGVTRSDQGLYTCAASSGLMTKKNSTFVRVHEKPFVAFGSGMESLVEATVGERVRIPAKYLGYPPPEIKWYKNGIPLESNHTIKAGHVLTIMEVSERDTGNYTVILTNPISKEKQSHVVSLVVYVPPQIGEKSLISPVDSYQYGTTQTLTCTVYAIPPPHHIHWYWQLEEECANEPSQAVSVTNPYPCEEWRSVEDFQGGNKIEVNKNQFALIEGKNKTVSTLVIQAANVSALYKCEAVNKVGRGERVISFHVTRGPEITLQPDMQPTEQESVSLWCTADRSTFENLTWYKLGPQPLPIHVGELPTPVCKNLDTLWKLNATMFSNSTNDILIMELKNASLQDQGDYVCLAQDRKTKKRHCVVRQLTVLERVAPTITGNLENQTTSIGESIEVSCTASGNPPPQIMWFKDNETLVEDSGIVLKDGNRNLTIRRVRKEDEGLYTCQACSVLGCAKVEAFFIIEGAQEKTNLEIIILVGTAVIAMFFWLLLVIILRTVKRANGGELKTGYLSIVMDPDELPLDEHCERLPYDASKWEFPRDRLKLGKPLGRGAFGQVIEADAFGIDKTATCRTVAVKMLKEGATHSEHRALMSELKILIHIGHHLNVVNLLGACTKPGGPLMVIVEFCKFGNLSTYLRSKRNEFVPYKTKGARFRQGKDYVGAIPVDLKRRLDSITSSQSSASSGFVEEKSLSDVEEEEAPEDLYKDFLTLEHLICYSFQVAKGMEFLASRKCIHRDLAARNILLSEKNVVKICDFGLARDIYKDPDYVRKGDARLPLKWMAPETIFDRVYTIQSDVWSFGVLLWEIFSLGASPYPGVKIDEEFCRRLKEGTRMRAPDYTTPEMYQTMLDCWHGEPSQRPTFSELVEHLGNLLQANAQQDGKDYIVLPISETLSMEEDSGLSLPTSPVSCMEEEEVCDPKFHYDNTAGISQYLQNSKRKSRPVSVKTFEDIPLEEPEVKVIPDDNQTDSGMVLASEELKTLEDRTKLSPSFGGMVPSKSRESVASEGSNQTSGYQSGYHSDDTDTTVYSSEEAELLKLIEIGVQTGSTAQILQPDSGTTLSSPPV
Chain of Human KDR (residues 790-1356) (P35968 790-1356): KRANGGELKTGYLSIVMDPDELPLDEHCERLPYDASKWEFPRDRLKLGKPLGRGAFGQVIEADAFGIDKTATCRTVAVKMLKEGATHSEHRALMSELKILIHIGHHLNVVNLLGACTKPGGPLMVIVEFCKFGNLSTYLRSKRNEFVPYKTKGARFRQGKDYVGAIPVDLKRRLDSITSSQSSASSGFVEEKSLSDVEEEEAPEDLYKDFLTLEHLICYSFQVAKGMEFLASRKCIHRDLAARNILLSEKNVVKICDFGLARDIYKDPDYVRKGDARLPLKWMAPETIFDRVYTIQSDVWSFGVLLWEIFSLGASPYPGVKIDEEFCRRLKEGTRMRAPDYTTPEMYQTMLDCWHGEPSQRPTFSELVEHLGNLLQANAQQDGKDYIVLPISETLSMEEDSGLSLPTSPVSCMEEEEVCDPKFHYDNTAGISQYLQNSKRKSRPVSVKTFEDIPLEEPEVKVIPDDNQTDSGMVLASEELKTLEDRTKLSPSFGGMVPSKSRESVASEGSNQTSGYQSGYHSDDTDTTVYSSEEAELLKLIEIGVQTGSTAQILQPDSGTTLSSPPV
Chain of AXL (phospho-AXL, Gas6-stimulated A-172 glioblastoma cells) (P30530 26-894): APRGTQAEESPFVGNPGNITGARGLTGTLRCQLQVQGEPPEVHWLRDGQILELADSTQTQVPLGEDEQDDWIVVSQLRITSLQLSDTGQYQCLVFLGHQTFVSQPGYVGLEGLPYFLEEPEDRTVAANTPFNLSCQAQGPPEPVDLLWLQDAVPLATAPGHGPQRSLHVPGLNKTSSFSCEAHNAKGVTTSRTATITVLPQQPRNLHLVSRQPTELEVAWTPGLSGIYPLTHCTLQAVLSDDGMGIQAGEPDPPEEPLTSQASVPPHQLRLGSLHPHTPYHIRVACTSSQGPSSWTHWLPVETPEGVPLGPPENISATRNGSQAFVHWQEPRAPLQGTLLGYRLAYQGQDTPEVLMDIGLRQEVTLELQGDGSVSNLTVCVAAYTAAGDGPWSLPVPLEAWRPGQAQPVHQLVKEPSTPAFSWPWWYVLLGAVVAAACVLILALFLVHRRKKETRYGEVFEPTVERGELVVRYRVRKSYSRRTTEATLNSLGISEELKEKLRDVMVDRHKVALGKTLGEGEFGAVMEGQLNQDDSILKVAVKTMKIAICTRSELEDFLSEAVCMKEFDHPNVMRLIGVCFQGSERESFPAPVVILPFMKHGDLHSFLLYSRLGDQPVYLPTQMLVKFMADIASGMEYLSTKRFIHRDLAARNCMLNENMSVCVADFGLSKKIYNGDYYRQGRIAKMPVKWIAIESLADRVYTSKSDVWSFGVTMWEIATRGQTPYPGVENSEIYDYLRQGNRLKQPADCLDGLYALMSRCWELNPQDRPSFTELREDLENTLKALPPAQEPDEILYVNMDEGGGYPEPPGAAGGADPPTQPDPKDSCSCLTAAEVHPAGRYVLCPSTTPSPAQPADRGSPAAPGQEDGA

| SMILES | IC50 [1] | IC50 [2] | IC50 [3] |
| --- | --- | --- | --- |
| COc1cc2nccc(Oc3ncc(NC(=O)c4cn(C5CC5)cc(-c5ccc(F)cc5)c4=O)cc3F)c2cc1OC [Compound 399, 1-cyclopropyl-N-[6-(6,7-dimethoxyquinolin-4-yl)oxy-5-fluoropyridin-3-yl]-5-(4-fluorophenyl)-4-oxopyridine-3-carboxamide] | < 100 nM | > 300 nM | > 300 nM |
| COCCOc1ccc2nccc(Oc3ccc(NC(=O)c4ccc(C)n(-c5ccc(F)cc5)c4=O)cc3F)c2n1 [Compound 350, N-[3-fluoro-4-[[6-(2-methoxyethoxy)-1,5-naphthyridin-4-yl]oxy]phenyl]-1-(4-fluorophenyl)-6-methyl-2-oxopyridine-3-carboxamide] |  | < 100 nM | 100 to 300 nM |
| Cc1cc(C)n(-c2ccc(F)cc2)c(=O)c1C(=O)Nc1ccc(Oc2ccnc3cccnc23)c(F)c1 [Compound 295, N-[3-Fluoro-4-(1,5-naphthyridin-4-yloxy)phenyl]-1-(4-fluorophenyl)-4,6-dimethyl-2-oxopyridine-3-carboxamide] |  | < 100 nM | < 100 nM |
| COc1cc2nccc(Oc3ccc(NC(=O)c4cn(C)cc(-c5c(C)cc(F)cc5C)c4=O)cc3F)c2nc1OC [Compound 268, N-[4-[(6,7-Dimethoxy-1,5-naphthyridin-4-yl)oxy]-3-fluorophenyl]-5-(4-fluoro-2,6-dimethylphenyl)-1-methyl-4-oxopyridine-3-carboxamide] |  | > 300 nM | > 300 nM |

Results, then the compound that gave them:

| IC50 [1] | IC50 [2] | IC50 [3] | SMILES |
| --- | --- | --- | --- |
|  | > 300 nM | > 300 nM | CCn1cc(C(=O)Nc2ccc(Oc3ccnc4cc(OC)cnc34)cc2)c(=O)c(-c2ccc(F)cc2)c1CO [Compound 274, 1-Ethyl-5-(4-fluorophenyl)-6-(hydroxymethyl)-N-[4-[(7-methoxy-1,5-naphthyridin-4-yl)oxy]phenyl]-4-oxopyridine-3-carboxamide] |
|  | < 100 nM | < 100 nM | COc1cc2nccc(Oc3ccc(NC(=O)c4cn(C)cc(-c5ccccc5)c4=O)cc3)c2nc1OC [Compound 39, N-[4-[(6,7-Dimethoxy-1,5-naphthyridin-4-yl)oxy]phenyl]-1-methyl-4-oxo-5-phenylpyridine-3-carboxamide hydrochloride] |
|  | > 300 nM | > 300 nM | COc1ccc2nccc(Oc3ccc(NC(=O)c4cn(C)c(C)c(-c5ccc(F)cc5)c4=O)cc3)c2n1 [Compound 356, 5-(4-fluorophenyl)-N-[4-[(6-methoxy-1,5-naphthyridin-4-yl)oxy]phenyl]-1,6-dimethyl-4-oxopyridine-3-carboxamide] |
|  | > 300 nM | > 300 nM | COc1ccc2nccc(Oc3ccc(NC(=O)c4cn(C(C)C)c(C)c(-c5ccc(F)cc5)c4=O)cc3)c2n1 [Compound 341, 5-(4-fluorophenyl)-N-[4-[(6-methoxy-1,5-naphthyridin-4-yl)oxy]phenyl]-6-methyl-4-oxo-1-propan-2-ylpyridine-3-carboxamide] |
